Tests used:
[1] = target: T1, RyR2 (Mus musculus, UniProt E9Q401); assay: ER Ca2+ leak measured in microsomes from mouse hippocampi; assay type: in vivo; design: Hippocampal RyR2 was immunoprecipitated and immunoblotted to detect PTMs; from tissue; host or cells: mouse hippocampus (SHAM / MI mice, treated in vivo); details: hippocampal microsomes from treated MI mice, versus untreated MI
Description: FIG. 3E are graphs of RyR2 Po, To and Tc in the same groups as FIG. 3D. FIG. 3F is a graph of Ca^2+ leak measured in microsomes from mouse hippocampi of the same groups as FIG. 3D. […] Individual values are shown with the mean±s.e.m. […] Data are derived from biologically independent samples. All statistical tests were two sided.
PTMs and functional abnormalities of neuronal RyR2 in HF hippocampal samples from MI mice were then evaluated and compared them to SHAM. Hippocampal RyR2 was immunoprecipitated and immunoblotted to detect PTMs.
Target sequence in this assay (E9Q401 whole entry): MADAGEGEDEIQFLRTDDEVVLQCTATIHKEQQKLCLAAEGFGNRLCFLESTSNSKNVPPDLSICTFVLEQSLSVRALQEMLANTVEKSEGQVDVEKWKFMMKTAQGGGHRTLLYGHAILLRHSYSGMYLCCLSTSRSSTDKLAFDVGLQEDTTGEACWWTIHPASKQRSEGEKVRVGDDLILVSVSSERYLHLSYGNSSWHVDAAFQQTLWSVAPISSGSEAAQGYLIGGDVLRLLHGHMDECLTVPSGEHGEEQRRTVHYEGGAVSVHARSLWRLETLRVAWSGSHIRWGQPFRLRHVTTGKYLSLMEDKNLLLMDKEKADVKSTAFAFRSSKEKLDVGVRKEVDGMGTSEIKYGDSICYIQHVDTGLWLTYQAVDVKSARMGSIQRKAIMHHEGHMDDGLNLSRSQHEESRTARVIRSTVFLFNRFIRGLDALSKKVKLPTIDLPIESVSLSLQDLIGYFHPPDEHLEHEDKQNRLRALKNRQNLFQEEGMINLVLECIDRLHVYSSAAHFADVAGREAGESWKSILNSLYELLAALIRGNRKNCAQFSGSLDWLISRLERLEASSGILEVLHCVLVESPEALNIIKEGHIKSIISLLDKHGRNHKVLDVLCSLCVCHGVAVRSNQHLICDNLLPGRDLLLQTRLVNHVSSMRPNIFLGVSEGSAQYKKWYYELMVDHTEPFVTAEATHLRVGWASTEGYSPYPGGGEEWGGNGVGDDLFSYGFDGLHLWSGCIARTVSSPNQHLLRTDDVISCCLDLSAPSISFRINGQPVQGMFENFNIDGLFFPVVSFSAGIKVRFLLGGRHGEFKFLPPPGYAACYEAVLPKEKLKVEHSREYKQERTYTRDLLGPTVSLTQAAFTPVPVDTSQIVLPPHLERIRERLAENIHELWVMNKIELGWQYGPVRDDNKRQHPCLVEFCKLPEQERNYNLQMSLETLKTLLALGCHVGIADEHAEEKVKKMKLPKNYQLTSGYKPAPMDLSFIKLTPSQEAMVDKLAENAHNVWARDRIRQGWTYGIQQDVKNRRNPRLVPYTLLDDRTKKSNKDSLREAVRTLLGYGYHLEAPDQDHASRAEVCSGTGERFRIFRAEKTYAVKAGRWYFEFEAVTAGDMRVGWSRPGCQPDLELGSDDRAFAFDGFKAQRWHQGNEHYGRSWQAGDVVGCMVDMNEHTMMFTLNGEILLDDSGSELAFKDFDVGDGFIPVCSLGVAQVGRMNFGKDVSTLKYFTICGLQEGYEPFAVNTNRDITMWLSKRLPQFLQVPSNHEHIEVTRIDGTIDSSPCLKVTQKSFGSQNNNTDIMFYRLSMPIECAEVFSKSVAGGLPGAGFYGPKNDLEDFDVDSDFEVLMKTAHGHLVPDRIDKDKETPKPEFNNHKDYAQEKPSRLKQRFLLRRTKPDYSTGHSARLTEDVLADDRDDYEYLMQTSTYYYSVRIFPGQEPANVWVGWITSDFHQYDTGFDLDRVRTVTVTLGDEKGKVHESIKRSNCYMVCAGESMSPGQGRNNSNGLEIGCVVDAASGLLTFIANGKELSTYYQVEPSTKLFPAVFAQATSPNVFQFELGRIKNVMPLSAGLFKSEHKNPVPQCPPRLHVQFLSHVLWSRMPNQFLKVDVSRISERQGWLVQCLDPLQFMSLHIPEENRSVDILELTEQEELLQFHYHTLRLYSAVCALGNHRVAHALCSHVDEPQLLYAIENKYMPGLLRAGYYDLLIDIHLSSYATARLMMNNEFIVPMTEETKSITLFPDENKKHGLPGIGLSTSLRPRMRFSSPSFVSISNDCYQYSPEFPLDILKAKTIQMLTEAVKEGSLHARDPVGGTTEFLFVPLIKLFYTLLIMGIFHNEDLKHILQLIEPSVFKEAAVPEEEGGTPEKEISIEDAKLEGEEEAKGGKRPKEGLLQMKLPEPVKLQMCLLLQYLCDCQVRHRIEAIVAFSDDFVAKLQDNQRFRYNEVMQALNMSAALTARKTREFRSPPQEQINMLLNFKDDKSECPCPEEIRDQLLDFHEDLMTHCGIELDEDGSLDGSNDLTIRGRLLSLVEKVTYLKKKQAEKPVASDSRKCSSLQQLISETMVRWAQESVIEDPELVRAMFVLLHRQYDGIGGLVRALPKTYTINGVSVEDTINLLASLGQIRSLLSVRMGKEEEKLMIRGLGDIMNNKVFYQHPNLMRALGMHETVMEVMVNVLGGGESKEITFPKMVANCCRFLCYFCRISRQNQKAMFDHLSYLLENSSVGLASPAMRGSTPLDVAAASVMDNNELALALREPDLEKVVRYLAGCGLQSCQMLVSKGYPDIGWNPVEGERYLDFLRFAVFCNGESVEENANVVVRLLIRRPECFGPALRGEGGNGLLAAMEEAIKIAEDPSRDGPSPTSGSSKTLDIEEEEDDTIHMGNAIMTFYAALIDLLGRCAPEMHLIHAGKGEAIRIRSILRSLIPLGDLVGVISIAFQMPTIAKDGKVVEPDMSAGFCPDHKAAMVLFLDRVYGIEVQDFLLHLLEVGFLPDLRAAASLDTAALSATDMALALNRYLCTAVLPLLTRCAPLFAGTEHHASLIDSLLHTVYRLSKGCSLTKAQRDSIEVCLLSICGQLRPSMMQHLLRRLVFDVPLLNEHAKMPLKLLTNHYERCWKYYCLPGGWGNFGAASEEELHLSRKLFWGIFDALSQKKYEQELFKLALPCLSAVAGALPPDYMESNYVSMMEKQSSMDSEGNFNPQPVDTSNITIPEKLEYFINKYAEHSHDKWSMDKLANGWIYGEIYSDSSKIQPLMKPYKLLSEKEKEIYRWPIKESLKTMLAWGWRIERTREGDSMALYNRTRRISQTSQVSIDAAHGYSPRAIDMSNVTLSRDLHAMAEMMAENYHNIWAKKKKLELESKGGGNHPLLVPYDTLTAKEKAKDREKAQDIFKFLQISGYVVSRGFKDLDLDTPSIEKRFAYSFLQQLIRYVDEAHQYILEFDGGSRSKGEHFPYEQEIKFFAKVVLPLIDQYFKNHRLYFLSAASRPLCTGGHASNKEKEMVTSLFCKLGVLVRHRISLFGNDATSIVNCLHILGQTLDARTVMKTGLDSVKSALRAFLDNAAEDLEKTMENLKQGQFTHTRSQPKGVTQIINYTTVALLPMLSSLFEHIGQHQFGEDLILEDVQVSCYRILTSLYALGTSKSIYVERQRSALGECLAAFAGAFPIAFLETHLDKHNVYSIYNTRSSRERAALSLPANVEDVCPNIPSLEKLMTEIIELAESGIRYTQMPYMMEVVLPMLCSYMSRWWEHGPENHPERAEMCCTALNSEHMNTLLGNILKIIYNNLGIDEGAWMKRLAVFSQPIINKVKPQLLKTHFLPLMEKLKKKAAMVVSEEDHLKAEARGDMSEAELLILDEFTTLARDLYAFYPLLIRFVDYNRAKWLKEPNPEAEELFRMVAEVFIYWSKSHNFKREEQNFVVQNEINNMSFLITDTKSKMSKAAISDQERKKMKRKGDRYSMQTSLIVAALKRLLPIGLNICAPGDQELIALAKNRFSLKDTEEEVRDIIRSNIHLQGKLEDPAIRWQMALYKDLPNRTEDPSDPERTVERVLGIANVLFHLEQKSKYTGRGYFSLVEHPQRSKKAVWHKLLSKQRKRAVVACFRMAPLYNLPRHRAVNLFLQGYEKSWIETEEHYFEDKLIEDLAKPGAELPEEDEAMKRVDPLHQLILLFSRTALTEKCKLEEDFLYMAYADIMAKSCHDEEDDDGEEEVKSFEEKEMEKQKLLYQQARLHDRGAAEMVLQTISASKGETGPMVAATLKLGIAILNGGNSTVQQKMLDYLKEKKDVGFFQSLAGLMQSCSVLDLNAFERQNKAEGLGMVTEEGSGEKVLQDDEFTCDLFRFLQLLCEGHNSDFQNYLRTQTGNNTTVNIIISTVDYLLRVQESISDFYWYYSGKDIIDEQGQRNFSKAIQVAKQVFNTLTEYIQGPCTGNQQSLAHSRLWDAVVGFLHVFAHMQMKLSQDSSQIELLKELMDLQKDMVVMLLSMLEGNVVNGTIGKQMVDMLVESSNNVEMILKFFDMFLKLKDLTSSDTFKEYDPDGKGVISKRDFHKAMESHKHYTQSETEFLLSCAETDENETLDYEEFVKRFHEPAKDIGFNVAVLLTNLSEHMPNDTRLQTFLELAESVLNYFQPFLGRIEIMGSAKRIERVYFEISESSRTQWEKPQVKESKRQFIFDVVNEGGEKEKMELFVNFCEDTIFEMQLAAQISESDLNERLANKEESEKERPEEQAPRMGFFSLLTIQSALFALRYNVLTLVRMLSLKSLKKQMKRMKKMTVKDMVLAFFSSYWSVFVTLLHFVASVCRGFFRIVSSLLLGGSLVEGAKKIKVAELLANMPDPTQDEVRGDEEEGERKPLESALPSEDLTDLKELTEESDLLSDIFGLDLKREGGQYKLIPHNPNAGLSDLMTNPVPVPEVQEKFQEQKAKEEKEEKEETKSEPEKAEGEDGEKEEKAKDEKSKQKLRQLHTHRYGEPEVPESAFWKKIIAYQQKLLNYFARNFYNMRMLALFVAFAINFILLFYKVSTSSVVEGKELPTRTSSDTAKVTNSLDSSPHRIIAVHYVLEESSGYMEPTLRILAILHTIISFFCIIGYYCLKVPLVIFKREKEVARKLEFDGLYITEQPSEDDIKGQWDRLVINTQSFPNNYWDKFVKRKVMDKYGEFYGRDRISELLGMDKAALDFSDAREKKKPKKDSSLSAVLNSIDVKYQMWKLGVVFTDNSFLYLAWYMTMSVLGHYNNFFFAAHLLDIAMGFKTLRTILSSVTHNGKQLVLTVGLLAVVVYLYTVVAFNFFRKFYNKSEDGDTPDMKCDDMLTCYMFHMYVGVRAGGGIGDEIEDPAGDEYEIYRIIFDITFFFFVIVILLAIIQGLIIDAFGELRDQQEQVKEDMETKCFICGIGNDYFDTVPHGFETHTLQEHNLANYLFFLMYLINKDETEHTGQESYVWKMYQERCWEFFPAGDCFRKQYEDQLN
Target sequence in this assay (Q9Z2I2 whole entry partner): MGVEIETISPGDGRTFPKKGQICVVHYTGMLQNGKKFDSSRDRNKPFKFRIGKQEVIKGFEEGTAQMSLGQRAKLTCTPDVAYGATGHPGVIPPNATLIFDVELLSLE

[2] = tested on: mouse model of HF (myocardial infarction, MI); assay: novel object recognition test (hippocampal-dependent short-term memory); assay type: in vivo; details: MI mice, treated; MI 15%±4%, SHAM 48%±5%
Excerpt: (§1) One-way analysis of variance (ANOVA) was used to compare the difference between the six groups in FIGS. 2B, 2C, 2E and 2F. Tukey's test was used for multiple comparisons; two-way ANOVA was used in FIG. 2D. […] All statistical tests were two sided with the data derived from biologically independent samples.
Next, a novel object recognition test was used to evaluate hippocampal-dependent short-term memory. (see Liu, X. et al. Role of leaky neuronal ryanodine receptors in stress-induced cognitive dysfunction. Cell 150, 1055-1067 (2012); and Bevins, R. A. & Besheer, J. Object recognition in rats and mice: a one-trial non-matching-to-sample learning task to study ‘recognition memory’. Nat. Protoc. 1, 1306-1311 (2006)).

[3] = tested on: mouse model of HF (myocardial infarction, MI); assay: open field test and elevated plus maze (EPM) test; assay type: in vivo; details: MI mice, treated
Excerpt: as §1, with “FIGS. 2A-2G illustrate a mouse model of heart failure (myocardial infarction) that is associated with cognitive dysfunction. […] One-way” for “One-way”
Because of the complexity of the clinical manifestation of HF patients, the mouse model of HF (myocardial infarction, MI) was used with reduced ejection fraction to evaluate the mechanisms of CD. The open field test and elevated plus maze (EPM) test were used to evaluate the behavioral phenotypes, and spontaneous exploratory activity in the mice. In the open field test, mice were placed at the center of a chamber and allowed to explore for 6 min. […] In the EPM test, MI mice spent […] time in the open arms of the EPM (FIG. 2B) compared to SHAM (0.22±0.04 versus 0.14±0.02; P<0.05). […] As a control, the effects of a Rycal®, ARM036, was studied.

[4] = tested on: HIV-1-associated neurocognitive disorders; details: rat model; cited from earlier work
[5] = tested on: MI mice; assay: long-term potentiation (fEPSPs) in hippocampal slices; assay type: in vivo, mouse; details: slices from treated MI mice; MI decreased LTP versus SHAM
Description: FIG. 4A is a schematic representation of a hippocampal brain slice for LTP experiments and the positioning of the stimulating and recording electrodes.
Field excitatory postsynaptic potentials (fEPSPs) were evaluated at the Schaffer collateral using a bipolar electrode placed at the CA3 and recording at the CA1 (FIG. 4A). […] Importantly, MI and treatment with the various compounds after MI had no effect on basal synaptic transmission determined by the input-output curves (I-O; P=0.5; FIG. 4D).

[6] = tested on: germinal matrix hemorrhage; details: cited from earlier work
[7] = target: T1, RyR2; assay: caffeine-induced Ca2+ release in primary hippocampal neurons; assay type: cell-based; design: representative images of 14-d cultured hippocampal neurons stimulated with 10 mM caffeine; endogenous in cells; host or cells: primary hippocampal neurons, 14 d in culture; details: 10 mM caffeine; neurons treated with isoproterenol plus compound
Description: FIG. 5A presents representative images of 14-d cultured hippocampal neurons stimulated with 10 mM caffeine. For each condition, the Ca^2+ levels are shown at baseline, during stimulation and at recovery. […] Individual values are shown with the mean±s.e.m. […] Scale bar, 10 μm. A reduction in caffeine-induced Ca^2+ release indicates a Ca^2+ depleted ER due to persistent RyR2-mediated Ca^2+ leak. Data are derived from biologically independent samples. All statistical tests were two sided.
To determine whether the activation of the adrenergic pathway indeed causes neuronal RyR2-mediated ER Ca^2+ leak, caffeine (10 mM), a well characterized RyR agonist, was used to assess RyR2 function specifically in hippocampal neurons without interference of other cell types such as glial cells or astrocytes.
Target sequence in this assay (E9Q401 whole entry): as the sequence (E9Q401 whole entry) above

[8] = tested on: amyloid and Tau pathology; details: Alzheimer's transgenic mice; cited from earlier work
[9] = tested on: healthy individuals; details: sustaining cognitive performance over time; cited from earlier work

Fc1ccc(Cl)cc1-c1nc(Nc2ccncc2)c2nccnc2n1 [SD-208]
ER Ca2+ leak [1]: reduced
discrimination index [2]: 35%±6%
abnormal behaviors in open field test (time center versus periphery) and EPM test (time open-arm versus closed-arm) [3]: prevented
spatial learning [4]: improved
LTP (hippocampal synaptic plasticity) [5]: prevented MI-induced LTP deficits
motor and cognitive function ([6]; rat model of germinal matrix hemorrhage): partial recovery
germinal matrix hemorrhage ([6]; rat model): inhibit germinal matrix hemorrhage

CC(C)NCC(O)COc1cccc2ccccc12 (stereo not drawn) [propranolol]
prevention of the small caffeine-induced Ca2+ release of isoproterenol-treated neurons [7]: prevented
abnormal behaviors in open field test (time center versus periphery) and EPM test (time open-arm versus closed-arm) [3]: prevented
amyloid and Tau pathology [8]: reduced
LTP (hippocampal synaptic plasticity) [5]: prevented MI-induced LTP deficits
effects on cognition [9]: beneficial effects

— patent US20250255882A1, “TREATMENT OF CARDIAC CONDITION RELATED COGNITIVE DYSFUNCTION” (The Trustees of Columbia University in the City of New York, priority 2024, published 2025)
